Test results as given in ChEMBL document CHEMBL1201862, “PubChem BioAssay data set” (2004).
Active and inactive are the calls of the source.

Experiments:
[1] = target: Luciferin 4-monooxygenase (Photinus pyralis, UniProt P08659); assay: Counter Screen for Luciferase-based Assay Positives. [Related pubchem assays: 620, 618, 411 ]
[2] = test system: HT-1080; assay: HT1080 cell viability loss – fluorescence readout (AID 620); assay type: functional, cell-based; conditions: Homo sapiens
[3] = cells; assay type: functional, cell-based
[4] = target: T1, Nuclear receptor subfamily 0 group B member 1 (Homo sapiens, UniProt P51843); assay type: functional, cell-based;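 also: HEK293T cells transfected with SF-1 and DAX-1 plus StAR promoter luciferase reporter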
T1 sequence (P51843 whole entry): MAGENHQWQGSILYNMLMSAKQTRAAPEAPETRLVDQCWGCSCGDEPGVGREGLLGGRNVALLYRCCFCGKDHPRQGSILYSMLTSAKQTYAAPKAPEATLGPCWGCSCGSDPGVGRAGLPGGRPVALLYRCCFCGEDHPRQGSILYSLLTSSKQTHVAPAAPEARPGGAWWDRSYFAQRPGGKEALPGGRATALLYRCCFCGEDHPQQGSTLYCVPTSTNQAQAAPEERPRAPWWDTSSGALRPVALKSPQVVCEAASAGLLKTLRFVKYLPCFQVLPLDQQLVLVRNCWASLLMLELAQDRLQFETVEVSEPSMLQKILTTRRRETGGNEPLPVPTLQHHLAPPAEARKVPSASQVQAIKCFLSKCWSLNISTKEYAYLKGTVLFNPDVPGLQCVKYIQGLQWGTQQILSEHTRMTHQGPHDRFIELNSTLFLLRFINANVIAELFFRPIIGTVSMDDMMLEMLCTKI

[5] = blockers of bursicon-stimulated LGR2 cAMP reporter – cell-based, HEK293, CRE-luciferase reporter, cherry pick, set 2, dose response (AID 743343); assay type: functional;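 also: transfected cells were stimulated with diluted bursicon conditioned medium after compound addition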
[6] = blockade of melanocortin 4 receptor signaling – cell-based, plate reader, cherry pick, counter-screen for LGR2 antagonist project, dose response (AID 743444); assay type: functional;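 also: transfected HEK 293 cells stimulated with alpha-MSH peptide; potency of inhibitors of the alpha-MSH evoked signal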
[7] = target: Acyl-homoserine lactone acylase PvdQ (Pseudomonas aeruginosa (strain LESB58), UniProt Q9I194); assay: PvdQ acylase enzyme activity blockers – biochemical, fluorescence, plate reader and imaging, cherry-picks, dose response (AID 493231)
[8] = target: T2, Leucine aminopeptidase (Plasmodium falciparum 3D7, UniProt Q8IL11); assay: P. falciparum M17LAP inhibitors, primary screen, biochemical, fluorogenic H-Leu-NHMec substrate, 1536-well (AID 1619); assay type: functional
T2 sequence (Q8IL11 whole entry): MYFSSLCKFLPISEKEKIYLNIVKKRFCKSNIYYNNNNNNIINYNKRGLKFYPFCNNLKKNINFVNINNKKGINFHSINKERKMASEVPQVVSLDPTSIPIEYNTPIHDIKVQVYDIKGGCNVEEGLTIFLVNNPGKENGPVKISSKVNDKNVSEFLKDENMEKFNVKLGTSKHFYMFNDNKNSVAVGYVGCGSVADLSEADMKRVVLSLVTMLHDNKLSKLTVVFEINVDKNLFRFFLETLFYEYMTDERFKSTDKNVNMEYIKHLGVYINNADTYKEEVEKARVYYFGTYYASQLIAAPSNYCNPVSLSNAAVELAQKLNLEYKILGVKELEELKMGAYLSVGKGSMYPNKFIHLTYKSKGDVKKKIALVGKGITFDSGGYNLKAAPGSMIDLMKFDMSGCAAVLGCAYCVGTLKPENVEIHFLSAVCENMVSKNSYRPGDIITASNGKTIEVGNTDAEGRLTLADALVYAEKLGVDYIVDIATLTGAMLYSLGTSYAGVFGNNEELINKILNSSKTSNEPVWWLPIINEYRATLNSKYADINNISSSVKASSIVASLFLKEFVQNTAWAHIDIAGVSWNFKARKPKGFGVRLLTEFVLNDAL

[9] = target: Estrogen receptor beta (Homo sapiens, UniProt Q92731); assay: blockers of SRC-3 recruitment to ERβ – biochemical, ELISA, streptavidin-HRP readout, orthogonal assay, confirmation (AID 1060)
[10] = target: Induced myeloid leukemia cell differentiation protein Mcl-1 (Homo sapiens, UniProt Q07820); assay type: functional
[11] = target: ORF 73 (Human herpesvirus 8, UniProt O40947); assay: KSHV LANA DNA-binding disruption – biochemical, fluorescence polarization, cherry-picked samples, dose response (AID 504725); parameters: species or system Human gammaherpesvirus 8;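 also: fluorescence polarization of a labeled DNA duplex reporting LANA DNA binding; potency is for inhibitors that block LANA binding to the DNA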
[12] = target: Aspartyl aminopeptidase (Plasmodium falciparum 3D7, UniProt Q8I2J3)
[13] = target: Procathepsin L (Homo sapiens, UniProt P07711)
[14] = target: T3, Tyrosine-protein phosphatase non-receptor type 7 (Homo sapiens, UniProt P35236); assay type: functional
T3 sequence (P35236 whole entry): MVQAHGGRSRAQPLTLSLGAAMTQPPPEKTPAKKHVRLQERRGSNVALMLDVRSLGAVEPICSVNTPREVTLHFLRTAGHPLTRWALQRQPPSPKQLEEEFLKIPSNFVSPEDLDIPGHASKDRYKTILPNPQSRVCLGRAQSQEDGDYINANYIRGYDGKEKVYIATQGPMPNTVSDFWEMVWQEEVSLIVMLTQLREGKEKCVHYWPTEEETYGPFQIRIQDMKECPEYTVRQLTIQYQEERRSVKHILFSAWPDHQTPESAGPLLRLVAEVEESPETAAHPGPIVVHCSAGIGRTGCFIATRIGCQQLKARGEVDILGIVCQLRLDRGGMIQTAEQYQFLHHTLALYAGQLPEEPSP

[15] = target: Glyceraldehyde-3-phosphate dehydrogenase (Homo sapiens, UniProt P04406)
[16] = target: T4, Dual specificity protein phosphatase 6 (Rattus norvegicus, UniProt Q64346)
T4 sequence (Q64346 whole entry): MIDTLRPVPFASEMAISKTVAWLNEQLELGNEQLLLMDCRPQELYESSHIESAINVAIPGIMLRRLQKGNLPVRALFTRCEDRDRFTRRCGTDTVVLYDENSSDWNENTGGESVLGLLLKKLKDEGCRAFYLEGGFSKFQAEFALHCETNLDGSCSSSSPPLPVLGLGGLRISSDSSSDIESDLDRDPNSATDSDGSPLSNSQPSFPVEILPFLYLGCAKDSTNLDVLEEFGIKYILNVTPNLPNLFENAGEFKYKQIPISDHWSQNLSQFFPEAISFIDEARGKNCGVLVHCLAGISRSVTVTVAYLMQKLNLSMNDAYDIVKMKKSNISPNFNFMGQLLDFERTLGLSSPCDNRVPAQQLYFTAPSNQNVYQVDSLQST

[17] = target: T4, Dual specificity protein phosphatase 6; assay type: functional

Sequence of Acyl-homoserine lactone acylase PvdQ (Q9I194 24-193 limits assumed): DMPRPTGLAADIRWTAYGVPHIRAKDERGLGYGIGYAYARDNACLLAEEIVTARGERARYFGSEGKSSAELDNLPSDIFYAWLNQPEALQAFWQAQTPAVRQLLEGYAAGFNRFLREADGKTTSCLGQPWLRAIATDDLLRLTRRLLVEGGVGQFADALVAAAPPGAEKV
Sequence of Acyl-homoserine lactone acylase PvdQ (Q9I194 217-762 limits assumed): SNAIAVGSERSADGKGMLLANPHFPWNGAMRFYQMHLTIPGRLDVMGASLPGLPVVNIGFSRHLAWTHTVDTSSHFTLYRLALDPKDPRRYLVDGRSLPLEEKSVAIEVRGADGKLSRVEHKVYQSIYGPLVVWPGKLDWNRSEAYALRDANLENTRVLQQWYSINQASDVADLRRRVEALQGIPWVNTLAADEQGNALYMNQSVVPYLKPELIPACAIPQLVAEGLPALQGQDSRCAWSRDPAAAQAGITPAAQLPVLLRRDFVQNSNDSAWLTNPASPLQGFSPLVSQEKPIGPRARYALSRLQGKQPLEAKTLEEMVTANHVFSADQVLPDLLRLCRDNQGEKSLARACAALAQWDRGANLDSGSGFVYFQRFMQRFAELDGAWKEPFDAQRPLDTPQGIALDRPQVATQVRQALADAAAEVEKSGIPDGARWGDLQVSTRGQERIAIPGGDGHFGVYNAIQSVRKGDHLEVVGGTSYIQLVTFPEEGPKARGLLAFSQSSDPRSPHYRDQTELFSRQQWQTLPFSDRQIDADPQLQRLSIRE
Sequence of Luciferin 4-monooxygenase (P08659 whole entry): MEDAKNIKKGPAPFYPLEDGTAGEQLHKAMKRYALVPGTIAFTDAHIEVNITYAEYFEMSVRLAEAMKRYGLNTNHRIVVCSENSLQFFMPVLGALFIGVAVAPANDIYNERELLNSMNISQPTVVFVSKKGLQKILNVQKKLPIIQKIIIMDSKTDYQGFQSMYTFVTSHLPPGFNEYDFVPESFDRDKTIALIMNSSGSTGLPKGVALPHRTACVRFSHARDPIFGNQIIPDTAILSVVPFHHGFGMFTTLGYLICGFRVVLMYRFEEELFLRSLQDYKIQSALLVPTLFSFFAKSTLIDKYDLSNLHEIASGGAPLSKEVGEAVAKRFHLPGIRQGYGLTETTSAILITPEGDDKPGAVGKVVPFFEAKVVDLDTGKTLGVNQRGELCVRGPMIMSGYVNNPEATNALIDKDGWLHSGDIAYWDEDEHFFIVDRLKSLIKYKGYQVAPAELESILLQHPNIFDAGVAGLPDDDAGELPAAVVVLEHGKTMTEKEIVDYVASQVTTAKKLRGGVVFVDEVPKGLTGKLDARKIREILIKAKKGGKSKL
Sequence of Procathepsin L (P07711 whole entry): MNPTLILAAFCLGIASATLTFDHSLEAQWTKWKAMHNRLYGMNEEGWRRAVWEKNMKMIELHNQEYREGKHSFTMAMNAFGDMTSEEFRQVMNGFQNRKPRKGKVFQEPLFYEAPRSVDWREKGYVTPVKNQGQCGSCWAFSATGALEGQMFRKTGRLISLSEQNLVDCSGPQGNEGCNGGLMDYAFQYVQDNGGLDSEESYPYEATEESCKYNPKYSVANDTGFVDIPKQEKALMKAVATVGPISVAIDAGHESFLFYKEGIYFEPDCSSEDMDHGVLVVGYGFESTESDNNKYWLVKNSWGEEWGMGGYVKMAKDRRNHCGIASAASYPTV
Sequence of Glyceraldehyde-3-phosphate dehydrogenase (P04406 whole entry): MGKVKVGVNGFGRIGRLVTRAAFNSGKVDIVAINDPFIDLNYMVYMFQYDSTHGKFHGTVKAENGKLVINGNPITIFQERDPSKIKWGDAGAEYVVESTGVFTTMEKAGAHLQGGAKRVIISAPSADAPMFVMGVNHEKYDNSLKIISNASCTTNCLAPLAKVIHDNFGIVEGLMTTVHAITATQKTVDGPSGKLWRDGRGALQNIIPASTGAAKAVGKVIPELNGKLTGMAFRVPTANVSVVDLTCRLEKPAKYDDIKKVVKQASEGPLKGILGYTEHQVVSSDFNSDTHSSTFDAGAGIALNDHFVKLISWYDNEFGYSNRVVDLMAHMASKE
Sequence of ORF 73 (O40947 whole entry): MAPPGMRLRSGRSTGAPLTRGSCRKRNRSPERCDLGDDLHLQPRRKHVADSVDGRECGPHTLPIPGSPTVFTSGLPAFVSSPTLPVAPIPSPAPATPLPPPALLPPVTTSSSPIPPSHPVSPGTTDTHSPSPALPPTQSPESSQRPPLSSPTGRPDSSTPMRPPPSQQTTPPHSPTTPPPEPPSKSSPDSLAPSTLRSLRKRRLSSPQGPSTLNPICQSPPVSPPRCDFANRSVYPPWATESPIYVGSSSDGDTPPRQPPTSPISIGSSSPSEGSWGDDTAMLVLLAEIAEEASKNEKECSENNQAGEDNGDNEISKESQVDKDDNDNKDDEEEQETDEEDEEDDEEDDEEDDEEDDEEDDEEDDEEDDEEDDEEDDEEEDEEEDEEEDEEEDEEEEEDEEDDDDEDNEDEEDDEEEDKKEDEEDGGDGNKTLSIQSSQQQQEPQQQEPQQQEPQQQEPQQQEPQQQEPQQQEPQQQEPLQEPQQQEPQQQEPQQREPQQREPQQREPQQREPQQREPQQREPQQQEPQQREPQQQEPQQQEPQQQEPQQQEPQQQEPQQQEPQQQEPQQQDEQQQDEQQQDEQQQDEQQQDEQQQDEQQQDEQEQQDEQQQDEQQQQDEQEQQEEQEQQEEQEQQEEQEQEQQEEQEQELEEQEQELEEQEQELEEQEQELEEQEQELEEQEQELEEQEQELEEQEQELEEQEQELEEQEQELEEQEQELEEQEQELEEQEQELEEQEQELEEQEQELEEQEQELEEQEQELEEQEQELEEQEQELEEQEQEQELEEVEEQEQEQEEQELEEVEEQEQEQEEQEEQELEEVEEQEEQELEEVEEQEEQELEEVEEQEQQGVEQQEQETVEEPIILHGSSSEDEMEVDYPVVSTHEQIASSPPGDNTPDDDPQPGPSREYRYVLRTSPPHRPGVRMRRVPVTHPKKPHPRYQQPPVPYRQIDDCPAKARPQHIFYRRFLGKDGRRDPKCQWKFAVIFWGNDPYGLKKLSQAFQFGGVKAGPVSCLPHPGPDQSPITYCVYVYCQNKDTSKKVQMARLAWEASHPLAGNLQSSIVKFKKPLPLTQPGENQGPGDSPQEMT
Sequence of Estrogen receptor beta (Q92731 whole entry): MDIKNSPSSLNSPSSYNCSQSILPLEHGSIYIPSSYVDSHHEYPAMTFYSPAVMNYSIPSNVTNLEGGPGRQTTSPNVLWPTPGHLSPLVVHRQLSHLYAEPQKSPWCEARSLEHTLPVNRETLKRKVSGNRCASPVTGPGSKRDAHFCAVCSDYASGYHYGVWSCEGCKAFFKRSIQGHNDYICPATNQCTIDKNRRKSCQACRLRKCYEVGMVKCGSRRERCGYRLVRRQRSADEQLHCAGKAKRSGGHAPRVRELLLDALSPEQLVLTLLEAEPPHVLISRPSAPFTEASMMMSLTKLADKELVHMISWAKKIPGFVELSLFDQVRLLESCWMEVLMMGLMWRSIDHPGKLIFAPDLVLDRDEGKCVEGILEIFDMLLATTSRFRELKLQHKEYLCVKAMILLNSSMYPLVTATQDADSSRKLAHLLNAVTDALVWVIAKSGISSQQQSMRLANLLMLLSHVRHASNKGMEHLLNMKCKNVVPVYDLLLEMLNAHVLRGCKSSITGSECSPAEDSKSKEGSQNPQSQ
Sequence of Aspartyl aminopeptidase (Q8I2J3 whole entry): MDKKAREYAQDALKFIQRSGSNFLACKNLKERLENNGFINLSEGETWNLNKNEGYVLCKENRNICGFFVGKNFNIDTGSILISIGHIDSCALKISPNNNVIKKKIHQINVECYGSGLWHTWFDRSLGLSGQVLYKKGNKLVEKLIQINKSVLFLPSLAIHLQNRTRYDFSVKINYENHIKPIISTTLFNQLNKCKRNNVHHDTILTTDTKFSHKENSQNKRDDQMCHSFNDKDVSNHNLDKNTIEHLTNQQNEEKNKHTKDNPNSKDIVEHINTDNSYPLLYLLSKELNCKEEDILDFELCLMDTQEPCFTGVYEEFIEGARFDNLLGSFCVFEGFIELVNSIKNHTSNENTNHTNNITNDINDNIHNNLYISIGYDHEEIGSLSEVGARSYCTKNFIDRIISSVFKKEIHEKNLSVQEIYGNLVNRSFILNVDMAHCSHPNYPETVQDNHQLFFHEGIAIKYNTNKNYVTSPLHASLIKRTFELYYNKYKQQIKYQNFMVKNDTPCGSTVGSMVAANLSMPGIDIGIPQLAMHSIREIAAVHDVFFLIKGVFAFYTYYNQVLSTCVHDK
Sequence of Induced myeloid leukemia cell differentiation protein Mcl-1 (Q07820 whole entry): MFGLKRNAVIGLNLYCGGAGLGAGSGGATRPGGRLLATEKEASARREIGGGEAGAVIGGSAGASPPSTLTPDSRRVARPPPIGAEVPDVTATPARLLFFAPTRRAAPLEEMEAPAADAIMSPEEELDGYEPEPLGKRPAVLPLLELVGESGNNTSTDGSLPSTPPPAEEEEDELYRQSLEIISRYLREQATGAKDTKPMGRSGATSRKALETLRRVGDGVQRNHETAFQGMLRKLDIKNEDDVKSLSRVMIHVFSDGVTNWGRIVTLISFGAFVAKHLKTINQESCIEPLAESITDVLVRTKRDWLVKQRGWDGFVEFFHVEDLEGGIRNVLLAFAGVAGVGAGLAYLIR

CC(C)Nc1ncnc2c1cnn2-c1ccc(Cl)cc1
EC50 [1]: 15.3 µM (active)
EC50 [2]: > 50 µM (not active)
IC50 [3]: > 67.5 µM (inactive)
IC50 [4]: > 67.5 µM (inactive)
AC50 [5]: 11.9 µM (active)
AC50 [6]: 13.3 µM (active)

N#Cc1cccnc1Nc1ccc(Cl)cc1
AC50 [7]: 14.2 µM (active)

Cc1cccc(C)c1NC(=O)CSc1nnc(-c2ccco2)c(-c2ccco2)n1
IC50 [8]: 18.9 µM (active)
IC50 [9]: 2 µM (not active)
IC50 [10]: 4.92 µM (active)
AC50 [11]: 160 µM (active)

CCCOc1ccc(C(=O)CCC(=O)OCC(=O)Nc2cccc(S(N)(=O)=O)c2)cc1
AC50 [7]: > 100 µM (inactive)

O=C(O)CSc1nnc[nH]1
IC50 [12]: 0.202 µM (active)
IC50 [13]: > 59.6 µM (not active)

Cc1ccc2c(c1)NC(C(=O)O)NS2(=O)=O (stereo not drawn)
IC50 [14]: 3.35 µM (active)
IC50 [15]: > 100 µM (not active)
IC50 [16]: 52.5 µM (active)
IC50 [17]: 56.9 µM (active)
